# Reference: article PMC3163123 (Bioorganic & medicinal chemistry, 2011)
# Assays:
# [1] = target: T1, recombinant wild-type HIV-1 IN (Human immunodeficiency virus type 1 group M subtype B, UniProt P12497); assay: Integrase catalytic activity assay, 3′-processing; type: biochemical
# [2] = target: T1, recombinant wild-type HIV-1 IN; assay: biochemical; type: biochemical
# [3] = tested on: H630 colon cancer cells; assay: MTT cytotoxicity assay; type: cell-based; settings: at the concentration of up to 40 μM
SMILES,IC50 [1] [µM],IC50 [2] [µM],also measured
"O=C(O)c1cccc(OCc2ccccc2)c1O [Compound 3a, 3-(Benzyloxy)-2-hydroxybenzoic acid]",> 100,> 100,
"O=C(O)c1cccc(OCc2ccc(F)cc2)c1O [Compound 3b, 3-(4-Fluorobenzyloxy)-2-hydroxybenzoic acid]",> 100,> 100,
"O=C(O)c1cccc(OCc2ccc3ccccc3c2)c1O [Compound 3c, 3-((Naphthalen-2-yl)methoxy)-2-hydroxybenzoic acid]",> 100,,
"O=C(O)c1ccc(OCc2ccccc2)cc1O [Compound 3d, 4-(Benzyloxy)-2-hydroxybenzoic acid]",> 100,> 100,
"O=C(O)c1ccc(OCc2ccc(F)cc2)cc1O [Compound 3e, 4-(4-Fluorobenzyloxy)-2-hydroxybenzoic acid]",> 100,> 100,
"O=C(O)c1cc(OCc2ccccc2)ccc1O [Compound 3f, 5-(Benzyloxy)-2-hydroxybenzoic acid]",> 100,> 100,
"O=C(O)c1cc(OCc2ccc(F)cc2)ccc1O [Compound 3g, 5-(4-Fluorobenzyloxy)-2-hydroxybenzoic acid]",> 100,> 100,
"O=C(O)c1c(O)cccc1OCc1ccccc1 [Compound 3h, 2-(Benzyloxy)-6-hydroxybenzoic acid]",> 100,> 100,
"O=C(O)c1c(O)cccc1OCc1ccc(F)cc1 [Compound 3i, 2-(4-Fluorobenzyloxy)-6-hydroxybenzoic acid]",> 100,> 100,
"O=C(O)c1c(O)cccc1OCc1ccc2ccccc2c1 [Compound 3j, 2-((Naphthalen-2-yl)methoxy)-6-hydroxybenzoic acid]",> 100,,
"O=C(NO)c1cccc(OCc2ccc(F)cc2)c1O [Compound 4a, 3-(4-fluorobenzyloxy)-N,2-dihydroxybenzamide]",> 100,> 100,
"O=C(NO)c1ccc(OCc2ccc(F)cc2)cc1O [Compound 4b, 4-(4-fluorobenzyloxy)-N,2-dihydroxybenzamide]",> 100,,
"O=C(NO)c1cc(OCc2ccc(F)cc2)ccc1O [Compound 4c, 5-(4-fluorobenzyloxy)-N,2-dihydroxybenzamide]",> 100,,
"O=C(NO)c1c(O)cccc1OCc1ccc(F)cc1 [Compound 4d, 2-(4-fluorobenzyloxy)-N,6-dihydroxybenzamide]",> 100,,
"O=C(NCc1ccc(F)cc1)c1cccc(O)c1O [Compound 5a, N-(4-Fluorobenzyl)-2,3-dihydroxybenzamide]",,,cytotoxicity in H630 cells [3]: not cytotoxic
"O=C(NCc1ccc(F)cc1)c1cccc(OCc2ccccc2)c1O [Compound 5b, 3-(Benzyloxy)-N-(4-fluorobenzyl)-2-hydroxybenzamide]",> 333,,cytotoxicity in H630 cells [3]: not cytotoxic
"O=C(NCc1cccc2ccccc12)c1cccc(O)c1O [Compound 5c, 2,3-Dihydroxy-N-(naphthalen-1-ylmethyl)benzamide]",> 100,,

SMILES,IC50 [1] [µM],IC50 [2] [µM],also measured
"O=C(NCc1ccc(F)c(F)c1)c1cccc(O)c1O [Compound 5d, N-(3,4-Difluorobenzyl)-2,3-dihydroxybenzamide]",> 100,,
"O=C(Nc1ccc2[nH]ccc2c1)c1cccc(O)c1O [Compound 5g, 2,3-Dihydroxy-N-(1H-indol-5-yl)benzamide]",> 100,,
"O=C(NCc1ccc(-c2cccs2)cc1)c1cccc(O)c1O [Compound 5j, 2,3-Dihydroxy-N-(4-(thiophen-2-yl)benzyl)benzamide]",> 100,,
"O=C(NC1CCNCC1)c1cccc(O)c1O [Compound 5k, 2,3-Dihydroxy-N-(piperidin-4-yl)benzamide]",> 100,> 100,
"O=C(NC1CCCCC1)c1cccc(O)c1O [Compound 5l, N-Cyclohexyl-2,3-dihydroxybenzamide]",> 100,> 100,
"O=C(NCC1CCCCC1)c1cccc(O)c1O [Compound 5m, N-(Cyclohexylmethyl)-2,3-dihydroxybenzamide]",> 100,,
"CNC(=O)Cc1ccccc1CNC(=O)c1cccc(O)c1O [Compound 5n, 2,3-Dihydroxy-N-(2-(2-(methylamino)-2-oxoethyl)benzyl)benzamide]",> 100,,
"CNC(=O)c1cc(F)ccc1CNC(=O)c1cccc(O)c1O [Compound 5o, N-(4-Fluoro-2-(methylcarbamoyl)benzyl)-2,3-dihydroxybenzamide]",> 100,,IN / strand transfer inhibitory potency [2]: loss of IN inhibitory potency
"O=C(NCc1ccc(F)cc1)c1cc(S(=O)(=O)N2CCCCC2)cc(O)c1O [Compound 5p, N-(4-Fluoro-benzyl)-2,3-dihydroxy-5-(piperidine-1-sulfonyl)-benzamide]",,,selectivity for the strand transfer over the 3′-processing reaction ([2]; ratio of IC50 values): more than 40 fold
"CNS(=O)(=O)c1cc(O)c(O)c(C(=O)NCc2ccc(F)cc2)c1 [Compound 5q, N-(4-Fluorobenzyl)-2,3-dihydroxy-5-(N-methylsulfamoyl)benzamide]",> 100,,
"O=C(NCc1ccco1)c1cc(S(=O)(=O)N2CCCCC2)cc(O)c1O [Compound 5s, N-(Furan-2-ylmethyl)-2,3-dihydroxy-5-(piperidin-1-ylsulfonyl)benzamide]",> 100,,
"O=C(NCc1cccs1)c1cc(S(=O)(=O)N2CCCCC2)cc(O)c1O [Compound 5v, N-(Thiophen-2-ylmethyl)-2,3-dihydroxy-5-(piperidin-1-ylsulfonyl)benzamide]",> 100,,
"CS(=O)(=O)Nc1cc(O)c(O)c(C(=O)NCc2ccc(F)cc2)c1 [Compound 5w, N-(4-Fluorobenzyl)-2,3-dihydroxy-5-(methylsulfonamido)benzamide]",> 100,,
"CN(C)Cc1ccc(C(=O)NCc2ccc(F)cc2)c(O)c1O [Compound 6a, 4-((Dimethylamino)methyl)-N-(4-fluorobenzyl)-2,3-dihydroxybenzamide]",> 100,,
"CN(C)Cc1ccc(C(=O)NCc2ccco2)c(O)c1O [Compound 6b, 4-((Dimethylamino)methyl)-N-(furan-2-ylmethyl)-2,3-dihydroxybenzamide]",> 100,,
"COc1cc(S(=O)(=O)N2CCCCC2)cc(C(=O)NCc2ccco2)c1O [Compound 6c, N-(Furan-2-ylmethyl)-2-hydroxy-3-methoxy-5-(piperidin-1-ylsulfonyl)benzamide]",> 100,> 100,IN / strand transfer inhibitory potency [2]: severe loss of potency
"Nc1cccc(C(=O)NCc2ccco2)c1O [Compound 6d, 3-Amino-N-(furan-2-ylmethyl)-2-hydroxybenzamide]",> 100,> 100,IN / strand transfer inhibitory potency [2]: severe loss of potency
